# Assay results as given in ChEMBL document CHEMBL1125697, “Synthesis and pharmacological examination of 1-(3-methoxy-4-methylphenyl)-2-aminopropane and 5-methoxy-6-methyl-2-aminoindan: similarities to 3,4-(methylenedioxy)methamphetamine (MDMA)” (J Med Chem, 1991).
# Tests used:
# Rattus norvegicus [1] = experiment: Momoamine and metabolic levels observed 1 week following acute dosing against at a dose of 20 mg/kg Frontal cortex 5-HT; assay type: ADME, organism-based; set-up: dose 20 mg/kg; conditions: in vivo, 168 h
# Rattus norvegicus [2] = experiment: Momoamine and metabolic levels observed 2 weeks following sub-acute dosing against Frontal cortex NE; assay type: ADME, organism-based; conditions: in vivo, 336 h
# Rattus norvegicus [3] = experiment: Momoamine and metabolic levels observed 1 week following acute dosing against at a dose of 20 mg/kg Frontal cortex NE; assay type: ADME, organism-based; set-up: dose 20 mg/kg; conditions: in vivo, 168 h
# Rattus norvegicus [4] = experiment: Momoamine and metabolic levels observed 1 week following acute dosing at a dose of 10 mg/kg Frontal cortex 5-HIAA; assay type: ADME, organism-based; set-up: dose 10 mg/kg; conditions: in vivo, 168 h
# Rattus norvegicus [5] = experiment: Momoamine and metabolic levels observed 2 weeks following sub-acute dosing against Frontal cortex 5-HT; assay type: ADME, organism-based; conditions: in vivo, 336 h
# Rattus norvegicus [6] = experiment: Momoamine and metabolic levels observed 2 weeks following sub-acute dosing against Frontal cortex DA; assay type: ADME, organism-based; conditions: in vivo, 336 h
# Rattus norvegicus [7] = experiment: Percentage of non disrupted rats that selected the drug lever, when given at a dose of 0.50 mg/kg in LSD-Trained rats; assay type: functional; conditions: dose 0.5 mg/kg
# Rattus norvegicus [8] = experiment: Effective dose was evaluated for drug discrimination in S-trained rats, when given at a dose of 0.25 mg/kg; assay type: functional
# Rattus norvegicus [9] = experiment: Momoamine and metabolic levels observed 1 week following acute dosing against at a dose of 10 mg/kg Hippocampus NE; assay type: ADME, organism-based; set-up: dose 10 mg/kg; conditions: in vivo, 168 h
# Rattus norvegicus [10] = experiment: Percentage of non disrupted rats that selected the drug lever, when given at a dose of 0.5 mg/kg in S-Amphetamine-Trained rats; assay type: functional
# Rattus norvegicus [11] = experiment: Momoamine and metabolic levels observed 1 week following acute dosing at a dose of 10 mg/kg Frontal cortex HVA; assay type: ADME, organism-based; set-up: dose 10 mg/kg; conditions: in vivo, 168 h
# Rattus norvegicus [12] = experiment: Momoamine and metabolic levels observed at 3 hr postdrug against at a dose of 20 mg/kg Frontal cortex 5-HT; assay type: ADME, organism-based; set-up: dose 20 mg/kg; conditions: in vivo
# Rattus norvegicus [13] = experiment: Momoamine and metabolic levels observed 2 weeks following sub-acute dosing against Hippocampus 5-HT; assay type: ADME, organism-based; conditions: in vivo, 336 h
# Rattus norvegicus [14] = organism: Rattus norvegicus; experiment: Compound was evaluated for the uptake inhibition of [3H]-5-HT in rats; assay type: functional
# Rattus norvegicus [15] = experiment: Momoamine and metabolic levels observed at 3 h postdrug against at a dose of 20 mg/kg Frontal cortex DOPAC; assay type: ADME, organism-based; set-up: dose 20 mg/kg; conditions: in vivo
# Rattus norvegicus [16] = experiment: Percentage of non disrupted rats that selected the drug lever, when given at a dose of 2.00 mg/kg; assay type: functional
# Rattus norvegicus [17] = experiment: Percentage of non disrupted rats that selected the drug lever, when given at a dose of 1.00 mg/kg; assay type: functional
# Rattus norvegicus [18] = experiment: Momoamine and metabolic levels observed at 3 hr postdrug against at a dose of 20 mg/kg Frontal cortex DA; assay type: ADME, organism-based; set-up: dose 20 mg/kg; conditions: in vivo
# [19] = target: Sodium-dependent serotonin transporter (Rattus norvegicus) (UniProt P31652); experiment: Number of uptake sites for [3H]paroxetine receptor binding after sub-acute dosing against Frontal cortex; assay type: tissue-based
# Sequence of Sodium-dependent serotonin transporter (Rattus norvegicus) (P31652 whole entry): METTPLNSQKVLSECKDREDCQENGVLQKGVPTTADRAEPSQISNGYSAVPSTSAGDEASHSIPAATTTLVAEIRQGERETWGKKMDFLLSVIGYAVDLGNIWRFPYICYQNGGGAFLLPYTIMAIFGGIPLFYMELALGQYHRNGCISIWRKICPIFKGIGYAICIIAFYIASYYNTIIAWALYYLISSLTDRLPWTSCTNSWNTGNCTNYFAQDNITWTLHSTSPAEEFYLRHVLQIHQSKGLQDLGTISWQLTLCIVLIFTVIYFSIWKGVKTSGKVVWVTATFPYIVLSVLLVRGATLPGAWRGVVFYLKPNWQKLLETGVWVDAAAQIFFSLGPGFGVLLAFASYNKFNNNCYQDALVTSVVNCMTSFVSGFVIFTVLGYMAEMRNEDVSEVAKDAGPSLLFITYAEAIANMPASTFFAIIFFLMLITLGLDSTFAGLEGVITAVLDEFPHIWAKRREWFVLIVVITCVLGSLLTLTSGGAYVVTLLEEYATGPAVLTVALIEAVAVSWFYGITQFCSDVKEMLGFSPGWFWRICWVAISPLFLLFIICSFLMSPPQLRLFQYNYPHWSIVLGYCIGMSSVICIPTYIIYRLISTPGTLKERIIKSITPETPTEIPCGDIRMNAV
# Rattus norvegicus [20] = experiment: Momoamine and metabolic levels observed 1 week following acute dosing against at a dose of 20 mg/kg Frontal cortex 5-HIAA; assay type: ADME, organism-based; set-up: dose 20 mg/kg; conditions: in vivo, 168 h
# Rattus norvegicus [21] = experiment: Momoamine and metabolic levels observed 2 weeks following sub-acute dosing against Hippocampus 5-HIAA; assay type: ADME, organism-based; conditions: in vivo, 336 h
# [22] = target: Sodium-dependent serotonin transporter (Rattus norvegicus) (UniProt P31652); experiment: Number of uptake sites for [3H]paroxetine receptor binding after sub-acute dosing against Hippocampus
# Rattus norvegicus [23] = experiment: Momoamine and metabolic levels observed 1 week following acute dosing against at a dose of 20 mg/kg Hippocampus 5-HIAA; assay type: ADME, organism-based; set-up: dose 20 mg/kg; conditions: in vivo, 168 h
# Rattus norvegicus [24] = experiment: Momoamine and metabolic levels observed 1 week following acute dosing against at a dose of 10 mg/kg Hippocampus 5-HT; assay type: ADME, organism-based; set-up: dose 10 mg/kg; conditions: in vivo, 168 h
# Rattus norvegicus [25] = experiment: Momoamine and metabolic levels observed 1 week following acute dosing against at a dose of 20 mg/kg Frontal cortex DOPAC; assay type: ADME, organism-based; set-up: dose 20 mg/kg; conditions: in vivo, 168 h
# Rattus norvegicus [26] = experiment: Momoamine and metabolic levels observed 1 week following acute dosing at a dose of 10 mg/kg Frontal cortex 5-HT; assay type: ADME, organism-based; set-up: dose 10 mg/kg; conditions: in vivo, 168 h
# Rattus norvegicus [27] = experiment: Momoamine and metabolic levels observed at 3 hr postdrug against at a dose of 20 mg/kg Frontal cortex NE; assay type: ADME, organism-based; set-up: dose 20 mg/kg; conditions: in vivo
# Rattus norvegicus [28] = experiment: Percentage of non disrupted rats that selected the drug lever, when given at a dose of 2.00 mg/kg in LSD-Trained rats; assay type: functional
# Rattus norvegicus [29] = experiment: Percentage of non disrupted rats that selected the drug lever, when given at a dose of 0.25 mg/kg in LSD-Trained rats; assay type: functional
# Rattus norvegicus [30] = experiment: Momoamine and metabolic levels observed 2 weeks following sub-acute dosing against Frontal cortex DOPAC; assay type: ADME, organism-based; conditions: in vivo, 336 h
# Rattus norvegicus [31] = experiment: Momoamine and metabolic levels observed at 3 hr postdrug against at a dose of 20 mg/kg Hippocampus 5-HIAA; assay type: ADME, organism-based; set-up: dose 20 mg/kg; conditions: in vivo
# Rattus norvegicus [32] = experiment: Effective dose was evaluated for drug discrimination in I-trained rats, when given at a dose of 1.16 micro mol/kg; assay type: functional
# Rattus norvegicus [33] = experiment: Momoamine and metabolic levels observed 1 week following acute dosing against at a dose of 20 mg/kg Hippocampus NE; assay type: ADME, organism-based; set-up: dose 20 mg/kg; conditions: in vivo, 168 h
# Rattus norvegicus [34] = experiment: Effective dose was evaluated for drug discrimination in I-trained rats, when given at a dose of 0.25 mg/kg; assay type: functional; conditions: Rattus norvegicus; read-out: ED50
# Rattus norvegicus [35] = experiment: Effective dose was evaluated for drug discrimination in S-trained rats, when given at a dose of 0.25 umol/kg; assay type: functional
# Rattus norvegicus [36] = experiment: Momoamine and metabolic levels observed 1 week following acute dosing against at a dose of 20 mg/kg Hippocampus 5-HT; assay type: ADME, organism-based; set-up: dose 20 mg/kg; conditions: in vivo, 168 h
# Rattus norvegicus [37] = experiment: Percentage of non disrupted rats that selected the drug lever, when given at a dose of 0.25 mg/kg; assay type: functional
# Rattus norvegicus [38] = experiment: Momoamine and metabolic levels observed 2 weeks following sub-acute dosing against Frontal cortex HVA; assay type: ADME, organism-based; conditions: in vivo, 336 h
# Rattus norvegicus [39] = experiment: Momoamine and metabolic levels observed 2 weeks following sub-acute dosing against Frontal cortex 5-HIAA; assay type: ADME, organism-based; conditions: in vivo, 336 h
# Rattus norvegicus [40] = experiment: Percentage of non disrupted rats that selected the drug lever, when given at a dose of 0.5 mg/kg; assay type: functional
# Rattus norvegicus [41] = experiment: Momoamine and metabolic levels observed at 3 hr postdrug against at a dose of 20 mg/kg Frontal cortex 5-HIAA; assay type: ADME, organism-based; set-up: dose 20 mg/kg; conditions: in vivo
# Rattus norvegicus [42] = experiment: Percentage of non disrupted rats that selected the drug lever, when given at a dose of 0.25 mg/kg in S-Amphetamine-Trained rats; assay type: functional
# Rattus norvegicus [43] = experiment: Momoamine and metabolic levels observed 1 week following acute dosing at a dose of 10 mg/kg Frontal cortex NE; assay type: ADME, organism-based; set-up: dose 10 mg/kg; conditions: in vivo, 168 h
# Rattus norvegicus [44] = experiment: Momoamine and metabolic levels observed 1 week following acute dosing against at a dose of 20 mg/kg Frontal cortex HVA; assay type: ADME, organism-based; set-up: dose 20 mg/kg; conditions: in vivo, 168 h
# Rattus norvegicus [45] = experiment: Momoamine and metabolic levels observed 1 week following acute dosing against at a dose of 20 mg/kg Frontal cortex DA; assay type: ADME, organism-based; set-up: dose 20 mg/kg; conditions: in vivo, 168 h
# Rattus norvegicus [46] = experiment: Momoamine and metabolic levels observed 1 week following acute dosing at a dose of 10 mg/kg Frontal cortex DOPAC; assay type: ADME, organism-based; set-up: dose 10 mg/kg; conditions: in vivo, 168 h
# Rattus norvegicus [47] = experiment: Percentage of non disrupted rats that selected the drug lever, when given at a dose of 1.00 mg/kg in S-Amphetamine-Trained rats; assay type: functional
# Rattus norvegicus [48] = experiment: Momoamine and metabolic levels observed at 3 hr postdrug against at a dose of 20 mg/kg Frontal cortex HVA; assay type: ADME, organism-based; set-up: dose 20 mg/kg; conditions: in vivo
# Rattus norvegicus [49] = experiment: Momoamine and metabolic levels observed 1 week following acute dosing at a dose of 10 mg/kg Frontal cortex DA; assay type: ADME, organism-based; set-up: dose 10 mg/kg; conditions: in vivo, 168 h
# Rattus norvegicus [50] = experiment: Momoamine and metabolic levels observed at 3 hr postdrug against at a dose of 20 mg/kg Hippocampus NE; assay type: ADME, organism-based; set-up: dose 20 mg/kg; conditions: in vivo
# Rattus norvegicus [51] = experiment: Momoamine and metabolic levels observed 2 weeks following sub-acute dosing against Hippocampus NE; assay type: ADME, organism-based; conditions: in vivo, 336 h
# Rattus norvegicus [52] = experiment: Momoamine and metabolic levels observed 1 week following acute dosing at a dose of 10 mg/kg Hippocampus 5-HIAA; assay type: ADME, organism-based; set-up: dose 10 mg/kg; conditions: in vivo, 168 h
compound,measurement,setting,value
COc1cc(CC(C)N)ccc1C (stereo not drawn),Metabolite level,Rattus norvegicus [1],316
same,Metabolite level,Rattus norvegicus [2],573
same,Metabolite level,Rattus norvegicus [3],487
same,Metabolite level,Rattus norvegicus [4],233
same,Metabolite level,Rattus norvegicus [5],411
same,Metabolite level,Rattus norvegicus [6],83
same,SDL,Rattus norvegicus [7],38%
same,ED50,Rattus norvegicus [8],0.47 mg/kg
same,Metabolite level,Rattus norvegicus [9],620
same,SDL,Rattus norvegicus [10],0%
same,Metabolite level,Rattus norvegicus [11],70
same,Metabolite level,Rattus norvegicus [12],212
same,Metabolite level,Rattus norvegicus [13],392
same,IC50,Rattus norvegicus [14],0.136 µM
same,Metabolite level,Rattus norvegicus [15],46
same,SDL,Rattus norvegicus [16],100%
same,SDL,Rattus norvegicus [17],63%
same,Metabolite level,Rattus norvegicus [18],120
same,No. of uptake sites,[19],12.3
same,Metabolite level,Rattus norvegicus [20],229
same,Metabolite level,Rattus norvegicus [21],503
same,No. of uptake sites,[22],14.9
same,Metabolite level,Rattus norvegicus [23],430
same,Metabolite level,Rattus norvegicus [24],255
same,Metabolite level,Rattus norvegicus [25],45
same,Metabolite level,Rattus norvegicus [26],281
same,Metabolite level,Rattus norvegicus [27],585
same,SDL,Rattus norvegicus [28],75%
same,SDL,Rattus norvegicus [29],0%
same,Metabolite level,Rattus norvegicus [30],74
same,Metabolite level,Rattus norvegicus [31],260
same,ED50,Rattus norvegicus [32],2.74 µmol/kg
same,Metabolite level,Rattus norvegicus [33],578
same,ED50,Rattus norvegicus [34],0.59 mg/kg
same,ED50,Rattus norvegicus [35],2.16 µmol/kg
same,Metabolite level,Rattus norvegicus [36],431
same,SDL,Rattus norvegicus [37],11%
same,Metabolite level,Rattus norvegicus [38],62
same,Metabolite level,Rattus norvegicus [39],253
same,SDL,Rattus norvegicus [40],50%
same,Metabolite level,Rattus norvegicus [41],139
same,SDL,Rattus norvegicus [42],0%
same,Metabolite level,Rattus norvegicus [43],394
same,Metabolite level,Rattus norvegicus [44],85
same,Metabolite level,Rattus norvegicus [45],86
same,Metabolite level,Rattus norvegicus [46],39
same,SDL,Rattus norvegicus [47],0%
same,Metabolite level,Rattus norvegicus [48],138
same,Metabolite level,Rattus norvegicus [49],88
same,Metabolite level,Rattus norvegicus [50],641
same,Metabolite level,Rattus norvegicus [51],724
same,Metabolite level,Rattus norvegicus [52],460
COc1cc(CC(C)N)c(OC)cc1C (stereo not drawn) [DOM],IC50,Rattus norvegicus [14],10.7 µM
